{
  "source": "paper PMC3001719",
  "about": "“The heme sensing response regulator HssR in Staphylococcus aureus but not the homologous RR23 in Listeria monocytogenes modulates susceptibility to the antimicrobial peptide plectasin” (BMC Microbiology, 2010)",
  "format_in_all_cases": "cell-based, Staphylococcus aureus",
  "key": {"[1]": {"test_system": "hrtB and hssR expression in wild type S. aureus", "assay": "Expression of hrtB and hssR, northern blot and quantitative real-time PCR", "details": "plectasin 35 μg/ml, 10 and 90 minutes, northern blot and quantitative real-time PCR (P > 0.05)", "description": "Wild type S. aureus and the hssR mutant were grown to an absorbance at 600 nm of 0.45 ± 0.1, samples were withdrawn for the isolation of RNA. Plectasin (35 μg/ml) was added to the growing culture, and after 10 and 90 minutes samples were also withdrawn. Cells were quickly cooled and lysed mechanically using the FastPrep machine (Bio101; Q-biogene), and RNA was isolated by the RNeasy kit (QIAGEN, Valencia, Calif.) according to the manufacturer's instructions. Northern Blotting: RNA was transferred to a nylon membrane (Boehringer Mannheim) by capillary blotting as previously described. Hybridization was performed using gene-specific probes that had been labelled with [^32P]dCTP using the Ready-to-Go DNA-labelling beads from Amersham Biosciences. Primers for probes amplifying hrtB and hssR: hrtB-1F:(5'[…]3'), hrtB-2R: (5'[…]3'), hssR-1F: (5'[…]3'), hssR-2R:(5' […]3'). All steps were repeated in two independent experiments giving similar results. Quantitative RT-PCR: RNA was treated with DNase and RevertAid™ H Minus first strand cDNA synthesis Kit (Fermentas). […] Statistical analysis on QRTPCR results using GraphPad prism5, 1Way Anova with Dunnett's Multiple comparison test (GraphPad Software, Inc) determined changes in expression comparing time 0 to time 10 minutes or 90 minutes."}, "[2]": {"test_system": "S. aureus 8325-4 hssR mutant", "assay": "Growth in TSB with plectasin and/or hemin", "details": "plectasin 35 μg/ml, 37°C, absorbance at 600 nm, transduced 8325-4 hssR mutant", "description": "(§1) Overnight cultures of S. aureus were diluted to an absorbance at 600 nm of 0.05 in TSB with and without 4 μM hemin and/or 35 μg/ml plectasin and grown at 37°C. Measurements of the absorbance were made every 30 minutes."}, "[3]": {"test_system": "S. aureus 8325-4 wild type", "assay": "Growth in TSB with plectasin and/or hemin", "details": "plectasin 35 μg/ml, 37°C, absorbance at 600 nm", "description": "as §1"}, "S. aureus hssR mutants": {"test_system": "S. aureus hssR mutants", "assay": "MIC of hssR mutants compared to wild type", "details": "ratio of MIC, S. aureus hssR response regulator mutants vs wild type, regardless of the genetic background", "description": "Minimal inhibitory concentrations (MIC) of plectasin, eurocin, protamine, novicidin, and novispirin G10 were determined using a microbroth dilution method. Colonies from a BHI plate incubated overnight at 37 °C were suspended in MHB pH 7.4 to an absorbance at 546 nm of 0.11-0.12 at 546 nm (approx. 1.0 × 10^8 CFU/ml) and diluted in MHB to a concentration of 5.0 × 10^5 CFU/ml. Ninety μl of bacterial suspension was incubated with 10 μl of peptide solution in polypropylene 96-well plates (Nunc, 442587) for 18-24 h at 37°C. The peptide solutions were made fresh on the day of assay. The range of concentrations assayed were 0.25-256 μg/ml for plectasin and eurocin, 0.125-128 μg/ml for protamine and novispirin G10, and 0.031-32 μg/ml for novicidin. MIC was the lowest peptide concentration at which visual growth was inhibited."}},
  "note": "“And” between values parts separate entries of the source, which are not always exact repeats. Equal values may be shown once.",
  "data": [
    {"smiles": "CC[C@H](C)[C@@H]1NC(=O)[C@H](CO)NC(=O)[C@H](CCCCN)NC(=O)[C@@H]2CSSC[C@@H](C(=O)N[C@@H](Cc3ccc(O)cc3)C(=O)O)NC(=O)[C@H](CCCCN)NC(=O)[C@@H]3CSSC[C@H](NC(=O)[C@H](CCC(N)=O)NC(=O)[C@H](CCSC)NC(=O)[C@H](CC(=O)O)NC(=O)[C@H](CC(=O)O)NC(=O)[C@H](CCC(=O)O)NC(=O)[C@H](CC(=O)O)NC(=O)[C@H](Cc4c[nH]c5ccccc45)NC(=O)[C@@H]4CCCN4C(=O)CNC(=O)[C@H](CC(N)=O)NC(=O)[C@@H](NC(=O)CNC(=O)[C@H](Cc4ccccc4)NC(=O)CN)CSSC[C@H](NC(=O)[C@H](Cc4ccc(O)cc4)NC(=O)CNC(=O)CNC(=O)[C@H](CCCCN)NC(=O)[C@H](Cc4ccc(O)cc4)NC(=O)CNC(=O)[C@H](CCCCN)NC1=O)C(=O)N[C@@H](C)C(=O)N[C@@H](CCCCN)C(=O)NCC(=O)NCC(=O)N[C@@H](Cc1ccccc1)C(=O)N[C@@H](C(C)C)C(=O)N3)C(=O)N[C@@H](Cc1c[nH]cn1)C(=O)N[C@@H](CC(N)=O)C(=O)N[C@@H](Cc1c[nH]cn1)C(=O)N2", "note": "[plectasin]", "values": [
      {"measurement": "Expression of hrtB and hssR", "setting": "[1]", "result": "no change of expression"},
      {"measurement": "Growth in the presence of plectasin", "setting": "[2]", "result": "hardly affected the growth"},
      {"measurement": "Growth in the presence of plectasin", "setting": "[3]", "result": "inhibited the growth"},
      {"measurement": "Increased resistance of hssR mutants compared to the wild type", "setting": "S. aureus hssR mutants", "result": "2 to 4 fold and 2-4 fold"}
    ]}
  ]
}
